Values joined by “and” are separate entries in the source; they are usually repeats but may differ in a detail not shown here. Equal entries are not always repeated.
Biological target: hemoglobin (Homo sapiens, UniProt P68871+P69905)
Test: Stability of hemoglobin in samples preserved at 37° C. in preservation solution containing no haptoglobin, Hb measured by latex agglutination method (Examples 8, 9 and Table 10)
Settings: for Hb concentration / Recovery ratio with respect to Hb after 0 days: no phenylboronic acid, sugar 100 mmol/L
In short: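 Latex agglutination gave Hb concentration after storage at 37 °C for up to 62 h. Preservation solution (HEPES 40 mmol/L pH 6.8, BSA, NaN3, no haptoglobin) contained 0–2.5 mmol/L phenylboronic acid, some with added sugars (10–250 mmol/L). Samples held about 300 μg/L Hb, with or without 0.5% feces.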

Chain of hemoglobin (P69905 2-142): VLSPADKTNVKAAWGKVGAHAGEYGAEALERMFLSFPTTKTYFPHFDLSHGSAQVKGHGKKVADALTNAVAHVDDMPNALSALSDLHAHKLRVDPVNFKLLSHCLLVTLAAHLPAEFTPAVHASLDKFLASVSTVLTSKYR
Chain of hemoglobin (P68871 2-147): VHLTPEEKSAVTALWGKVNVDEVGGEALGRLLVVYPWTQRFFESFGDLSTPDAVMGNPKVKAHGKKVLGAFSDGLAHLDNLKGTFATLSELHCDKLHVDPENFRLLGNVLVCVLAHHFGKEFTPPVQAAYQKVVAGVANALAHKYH

Structure (SMILES): O=C(CO)[C@@H](O)[C@H](O)[C@H](O)CO [Fructose, fructose]
- Hb concentration (Feces 1, 0 h at 37° C.): 281 µg/L
- Recovery ratio with respect to Hb after 0 days (Feces 1, 0 h at 37° C.): 100%
- Hb concentration (Feces 1, 16 h at 37° C.): 134 µg/L
- Recovery ratio with respect to Hb after 0 days (Feces 1, 16 h at 37° C.): 48%
- Hb concentration (Feces 1, 38 h at 37° C.): 35 µg/L
- Recovery ratio with respect to Hb after 0 days (Feces 1, 38 h at 37° C.): 12%
- Hb concentration (Feces 1, 62 h at 37° C.): 0 µg/L
- Recovery ratio with respect to Hb after 0 days (Feces 1, 62 h at 37° C.): 0%
- Hb concentration (Feces 2, 0 h at 37° C.): 268 µg/L
- Recovery ratio with respect to Hb after 0 days (Feces 2, 0 h at 37° C.): 100%
- Hb concentration (Feces 2, 16 h at 37° C.): 60 µg/L
- Recovery ratio with respect to Hb after 0 days (Feces 2, 16 h at 37° C.): 22%
- Hb concentration (Feces 2, 38 h at 37° C.): 1 µg/L
- Recovery ratio with respect to Hb after 0 days (Feces 2, 38 h at 37° C.): 0%
- Hb concentration (Feces 2, 62 h at 37° C.): 0 µg/L
- Recovery ratio with respect to Hb after 0 days (Feces 2, 62 h at 37° C.): 0%
- Hb concentration (Feces 3, 0 h at 37° C.): 263 µg/L and 269 µg/L
- Recovery ratio with respect to Hb after 0 days (Feces 3, 0 h at 37° C.): 100%
- Hb concentration (Feces 3, 16 h at 37° C.): 51 µg/L and 57 µg/L
- Recovery ratio with respect to Hb after 0 days (Feces 3, 16 h at 37° C.): 19% and 21%
- Hb concentration (Feces 3, 38 h at 37° C.): 0 µg/L
- Recovery ratio with respect to Hb after 0 days (Feces 3, 38 h at 37° C.): 0%
- Hb concentration (Feces 3, 62 h at 37° C.): 0 µg/L
- Recovery ratio with respect to Hb after 0 days (Feces 3, 62 h at 37° C.): 0%
- Hb concentration (No feces, 0 h at 37° C.): 284 µg/L
- Recovery ratio with respect to Hb after 0 days (No feces, 0 h at 37° C.): 100%
- Hb concentration (No feces, 16 h at 37° C.): 246 µg/L
- Recovery ratio with respect to Hb after 0 days (No feces, 16 h at 37° C.): 86%
- Hb concentration (No feces, 38 h at 37° C.): 233 µg/L
- Recovery ratio with respect to Hb after 0 days (No feces, 38 h at 37° C.): 82%
- Hb concentration (No feces, 62 h at 37° C.): 230 µg/L
- Recovery ratio with respect to Hb after 0 days (No feces, 62 h at 37° C.): 81%
- recovery ratio of hemoglobin in the sample (sugar further added to phenylboronic acid 0.5 mmol/L, no haptoglobin, Feces 1, Feces 2, Feces 3): further improved

Source: patent publication US12215140B2, “Method of stabilizing protein contained in specimen and solution for stabilizing protein contained in specimen” (EIKEN KAGAKU KABUSHIKI KAISHA, priority 2018, dated 2025)
